Results reported in patent US9409907B2, “Inhibitor compounds” (Cancer Research Technology Limited, priority 2012, dated 2016).

Each molecule was assayed against full length MPS1 (Homo sapiens (Human), UniProt P33981) (assay: Measurement of inhibition of MPS1 kinase (Caliper EZ reader mobility-shift enzyme assay)). Conditions: full length MPS1 12.5 nM or 3 nM, H236 peptide 5 μM, ATP 10 μM, 60 min at room temperature.
Type: biochemical
Experimental: Measurement of Inhibition of MPS1 Kinase
The reaction was carried out for 60 min at room temperature and stopped by the addition of buffer (10 μl) containing 20 mM EDTA, 0.05% (v/v) Brij-35, in 0.1M HEPES-buffered saline (Free acid, Sigma, UK). The plate was read on a Caliper EZ reader II (Caliper Life Sciences).
The % inhibition of the compounds is calculated relative to the means of selected control wells.

Sequence of full length MPS1 (P33981 whole entry): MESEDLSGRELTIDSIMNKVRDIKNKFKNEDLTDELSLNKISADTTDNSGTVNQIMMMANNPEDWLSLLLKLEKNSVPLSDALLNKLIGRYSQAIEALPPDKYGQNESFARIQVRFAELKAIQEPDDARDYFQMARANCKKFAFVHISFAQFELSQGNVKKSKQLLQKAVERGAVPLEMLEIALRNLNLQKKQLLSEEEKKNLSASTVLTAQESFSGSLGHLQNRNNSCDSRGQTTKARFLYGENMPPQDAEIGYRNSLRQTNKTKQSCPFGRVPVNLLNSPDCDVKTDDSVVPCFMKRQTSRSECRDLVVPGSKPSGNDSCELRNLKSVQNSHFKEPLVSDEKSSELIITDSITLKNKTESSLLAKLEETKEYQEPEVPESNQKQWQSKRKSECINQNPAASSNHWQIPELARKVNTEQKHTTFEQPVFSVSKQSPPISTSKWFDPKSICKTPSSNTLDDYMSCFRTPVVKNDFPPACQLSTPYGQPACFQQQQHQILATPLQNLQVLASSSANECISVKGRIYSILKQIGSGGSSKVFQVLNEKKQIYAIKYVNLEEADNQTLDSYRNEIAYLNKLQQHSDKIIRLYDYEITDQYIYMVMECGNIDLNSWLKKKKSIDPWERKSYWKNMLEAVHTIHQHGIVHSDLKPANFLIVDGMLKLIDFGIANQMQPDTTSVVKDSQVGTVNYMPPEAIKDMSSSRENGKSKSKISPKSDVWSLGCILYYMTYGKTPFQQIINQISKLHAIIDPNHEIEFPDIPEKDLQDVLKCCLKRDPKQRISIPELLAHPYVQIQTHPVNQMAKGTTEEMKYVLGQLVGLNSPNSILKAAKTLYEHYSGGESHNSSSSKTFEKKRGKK

**Q.** With COc1cc(-c2cnn(C)c2CO)ccc1Nc1ncc2ccnc(NCC3(C)CCOC3)c2n1 (centres unmarked) [Example 185] as the molecule, how does the IC50 read?
**A.** 1 nM

**Q.** How did the IC50 turn out when COc1cc(N2CCCCC2)ccc1Nc1ncc2ccnc(NCC(C)(C)C)c2n1 [Example 171, N2-(2-methoxy-4-(piperidin-1-yl)phenyl)-N8-neopentylpyrido[3,4-d]pyrimidine-2,8-diamine] was run?
**A.** 65 nM

**Q.** Which IC50 does the source give for COc1cc(-c2cnc(C)n2C)ccc1Nc1cc2c(-c3cnn(C)c3)cccc2cn1 [Example 10, N-(4-(1,2-dimethyl-1H-imidazol-5-yl)-2-methoxyphenyl)-5-(1-methyl-1H-pyrazol-4-yl)isoquinolin-3-amine] here?
**A.** 6 nM

**Q.** Which IC50 does the source give for COC(C)(C)CNc1nccc2cnc(Nc3ccc(-c4cnn(C)c4)cc3OC(F)F)nc12 [Example 204] here?
**A.** 2 nM

**Q.** With COc1cc(C(=O)N2CC(OC)C2)ccc1Nc1ncc2ccnc(NCC(C)(C)OC)c2n1 [Example 193] as the molecule, how does the IC50 read?
**A.** 4 nM

**Q.** For COc1cc(-c2cnn(C)c2)c(C)cc1Nc1ncc2ccnc(-c3cnn(C)c3)c2n1 [Example 36], which IC50 is on record?
**A.** 100 nM

**Q.** Cn1cc(-c2ccc(Nc3ncc4ccnc(NCC(C)(C)C)c4n3)c(OC(F)(F)F)c2)cn1 [Example 169, N2-(4-(1-methyl-1H-pyrazol-4-yl)-2-(trifluoromethoxy)phenyl)-N8-neopentylpyrido[3,4-d]pyrimidine-2,8-diamine] was tested. Which IC50 did it give?
**A.** 48 nM

**Q.** Which IC50 does the source give for COc1cc(-c2cnn(C)c2)ccc1Nc1ncc2ccnc(NC[C@]3(C)CCOC3)c2n1 [Example 141, (S)—N^2-(2-methoxy-4-(1-methyl-1H-pyrazol-4-yl)phenyl)-N^3-((3-methyltetrahydrofuran-3-yl)methyl)pyrido[3,4-d]pyrimidine-2,8-diamine] here?
**A.** 3 nM

**Q.** For COc1nc(-c2cnc(C)n2C)ccc1Nc1ncc2ccnc(NCC(C)(C)OC)c2n1 [Example 162, N^2-(6-(1,2-Dimethyl-1H-imidazol-5-yl)-2-methoxypyridin-3-yl)-N^8-(2-methoxy-2-methylpropyl)pyrido[3,4-d]pyrimidine-2,8-diamine], which IC50 is on record?
**A.** 3 nM

**Q.** How did the IC50 turn out when COc1cc(-c2nncn2C)ccc1Nc1ncc2cc(C)nc(NCC(C)(C)C)c2n1 [Example 179, N2-(2-methoxy-4-(4-methyl-4H-1,2,4-triazol-3-yl)phenyl)-6-methyl-N8-neopentylpyrido[3,4-d]pyrimidine-2,8-diamine] was run?
**A.** 2 nM

**Q.** For COc1cc(-c2cn(C)nc2C)ccc1Nc1ncc2ccnc(NCC3(C)CCOC3)c2n1 (centres unmarked) [Example 191], which IC50 is on record?
**A.** 2 nM

**Q.** COc1cc(-c2cnn(C)c2)ccc1Nc1cc2c(NCC3CC3)nccc2cn1 [Example 106, N1-(cyclopropylmethyl)-N7-(2-methoxy-4-(1-methyl-1H-pyrazol-4-yl)phenyl)-2,6-naphthyridine-1,7-diamine] was tested. Which IC50 did it give?
**A.** 82 nM

**Q.** For COc1cc(-c2cnn(C)c2)ccc1Nc1cc2c(NC3CCCCC3)nccc2cn1 [Example 105, N1-cyclohexyl-N7-(2-methoxy-4-(1-methyl-1H-pyrazol-4-yl)phenyl)-2,6-naphthyridine-1,7-diamine], which IC50 is on record?
**A.** 56 nM

**Q.** For COc1cc(-c2cnn(C)c2)ccc1Nc1ncc2ccnc(N(C)C)c2n1 [Example 108, N^2-(2-methoxy-4-(1-methyl-1H-pyrazol-4-yl)phenyl)-N^8,N^8-dimethylpyrido[3,4-d]pyrimidine-2,8-diamine], which IC50 is on record?
**A.** 16 nM

**Q.** COc1cc(-c2cnn(C)c2)ccc1Nc1cc2c(-c3cnn(C)c3)nccc2cn1 [Example 103, N-(2-methoxy-4-(1-methyl-1H-pyrazol-4-yl)phenyl)-5-(1-methyl-1H-pyrazol-4-yl)-2,6-naphthyridin-3-amine] was tested. Which IC50 did it give?
**A.** 12 nM

**Q.** How did the IC50 turn out when COc1cc(-c2cnn(CCO)c2)ccc1Nc1ncc2ccnc(NC3CCOCC3)c2n1 [Example 44, 2-(4-(3-methoxy-4-((8-((tetrahydro-2H-pyran-4-yl)amino)pyrido[3,4-d]pyrimidin-2-yl)amino)phenyl)-1H-pyrazol-1-yl)ethanol] was run?
**A.** 3 nM

**Q.** With CNc1nccc2cnc(Nc3ccc(-c4cnn(C)c4)cc3OC)nc12 [Example 110, N^2-(2-methoxy-4-(1-methyl-1H-pyrazol-4-yl)phenyl)-N^8-methylpyrido[3,4-d]pyrimidine-2,8-diamine] as the molecule, how does the IC50 read?
**A.** 17 nM

**Q.** Which IC50 does the source give for COc1cc(C(=O)N2CCN(C)CC2)ccc1Nc1ncc2ccnc(NCC(C)(C)OC)c2n1 [Example 195] here?
**A.** 8 nM

**Q.** Which IC50 does the source give for CCOc1cc(-c2nncn2C)ccc1Nc1ncc2cc(C)nc(N3CC4(CCOC4)C3)c2n1 [Example 160, N-(2-ethoxy-4-(4-methyl-4H-1,2,4-triazol-3-yl)phenyl)-6-methyl-8-(6-oxa-2-azaspiro[3.4]octan-2-yl)pyrido[3,4-d]pyrimidin-2-amine] here?
**A.** 3 nM

**Q.** For COc1cc(-c2nncn2C)ccc1Nc1ncc2c(C)cnc(NCC3(C)CCOC3)c2n1 (centres unmarked) [Example 156, N^2-(2-methoxy-4-(4-methyl-4H-1,2,4-triazol-3-yl)phenyl)-5-methyl-N^8-((3-methyltetrahydrofuran-3-yl)methyl)pyrido[3,4-d]pyrimidine-2,8-diamine], which IC50 is on record?
**A.** 5 nM

**Q.** With COc1cc(C(=O)N2CC(OC)C2)ccc1Nc1cc2c(-c3cncn3C)cccc2cn1 [Example 4, (3-methoxy-4-((5-(1-methyl-1H-imidazol-5-yl)isoquinolin-3-yl)amino)phenyl)(3-methoxyazetidin-1-yl)methanone] as the molecule, how does the IC50 read?
**A.** 112 nM

**Q.** With COc1cc(-c2cnn(C)c2)ccc1Nc1ncc2ccnc(N3CCC4(CCC4)C3)c2n1 [Example 66, N-(2-methoxy-4-(1-methyl-1H-pyrazol-4-yl)phenyl)-8-(6-azaspiro[3.4]octan-6-yl)pyrido[3,4-d]pyrimidin-2-amine] as the molecule, how does the IC50 read?
**A.** 8 nM

**Q.** How did the IC50 turn out when COc1cc(-c2cnn(C)c2)ccc1Nc1ncc2ccnc(NC3CCOCC3)c2n1 [Example 69, N2-(2-methoxy-4-(1-methyl-1H-pyrazol-4-yl)phenyl)-N8-(tetrahydro-2H-pyran-4-yl)pyrido[3,4-d]pyrimidine-2,8-diamine] was run?
**A.** 3 nM

**Q.** Which IC50 does the source give for COc1cc(-c2nncn2C)ccc1Nc1ncc2c(C)cnc(NCC(C)(C)C)c2n1 [Example 151, N^2-(2-methoxy-4-(4-methyl-4H-1,2,4-triazol-3-yl)phenyl)-5-methyl-N^8-neopentylpyrido[3,4-d]pyrimidine-2,8-diamine] here?
**A.** 2 nM

**Q.** N#Cc1ccc(Nc2ncc3ccnc(N4CCC5(COC5)C4)c3n2)c(Cl)c1 [Example 205] was tested. Which IC50 did it give?
**A.** 87 nM

**Q.** For COc1cc(-c2cnn(CCN3CCN(C)CC3)c2)ccc1Nc1ncc2ccnc(NC3CCCCC3)c2n1 [Example 41, N^8-cyclohexyl-N2-(2-methoxy-4-(1-(2-(4-methylpiperazin-1-yl)ethyl)-1H-pyrazol-4-yl)phenyl)pyrido[3,4-d]pyrimidine-2,8-diamine], which IC50 is on record?
**A.** 3 nM

**Q.** Which IC50 does the source give for COCCNc1nccc2cnc(Nc3ccc(-c4cnn(C)c4)cc3OC)nc12 [Example 127, N^2-(2-Methoxy-4-(1-methyl-1H-pyrazol-4-yl)phenyl)-N^8-(2-methoxyethyl)pyrido[3,4-d]pyrimidine-2,8-diamine] here?
**A.** 8 nM

**Q.** For COc1cc(-c2cnn(C)c2)ccc1Nc1ncc2ccnc(NCC3(C)COC3)c2n1 [Example 109, N^2-(2-methoxy-4-(1-methyl-1H-pyrazol-4-yl)phenyl)-N^8-((3-methyloxetan-3-yl)methyl)pyrido(3,4-d]pyrimidine-2,8-diamine], which IC50 is on record?
**A.** 2 nM

**Q.** COc1cc(-c2cnn(C)c2)ccc1Nc1ncc2ccnc(NC(C)(C)C)c2n1 [Example 82, N8-tert-butyl-N2-(2-methoxy-4-(1-methyl-1H-pyrazol-4-yl)phenyl)pyrido[3,4-d]pyrimidine-2,8-diamine] was tested. Which IC50 did it give?
**A.** 25 nM

**Q.** How did the IC50 turn out when CCn1cc(-c2nccc3cnc(Nc4ccc(-c5cnn(C)c5)cc4OC)nc23)cn1 [Example 91, 8-(1-ethyl-1H-pyrazol-4-yl)-N-(2-methoxy-4-(1-methyl-1H-pyrazol-4-yl)phenyl)pyrido[3,4-d]pyrimidin-2-amine] was run?
**A.** 10 nM

**Q.** Which IC50 does the source give for COCCn1c(-c2ccc(Nc3ncc4ccnc(NCC(C)(C)OC)c4n3)c(OC)c2)cnc1C [Example 186] here?
**A.** 4 nM

**Q.** For CCOc1cc(-c2nncn2C)ccc1Nc1ncc2cc(C)nc(NCC(C)(C)C)c2n1 [Example 182], which IC50 is on record?
**A.** 3 nM

**Q.** How did the IC50 turn out when COc1cc(-c2cnn(C)c2)ccc1Nc1ncc2ccnc(NCC3CCOC3)c2n1 (centres unmarked) [Example 79, N2-(2-methoxy-4-(1-methyl-1H-pyrazol-4-yl)phenyl)-N8-((tetrahydrofuran-3-yl)methyl)pyrido[3,4-d]pyrimidine-2,8-diamine] was run?
**A.** 5 nM

**Q.** How did the IC50 turn out when COc1nc(-c2cn(C)nc2C)ccc1Nc1ncc2ccnc(NCC(C)(C)OC)c2n1 [Example 164, N^2-(6-(1,3-Dimethyl-1H-pyrazol-4-yl)-2-methoxypyridin-3-yl)-N^8-(2-methoxy-2-methylpropyl)pyrido[3,4-d]pyrimidine-2,8-diamine] was run?
**A.** 3 nM

**Q.** With COc1cc(C(=O)N2CC(OC)C2)ccc1Nc1cc2c(-c3cnn(C(C)C)c3)cccc2cn1 [Example 7, (4-((5-(1-isopropyl-1H-pyrazol-4-yl)isoquinolin-3-yl)amino)-3-methoxyphenyl)(3-methoxyazetidin-1-yl)methanone] as the molecule, how does the IC50 read?
**A.** 11 nM

**Q.** Which IC50 does the source give for COc1cc(-c2cnn(C)c2)ccc1Nc1ncc2cc(C)nc(NCC(C)(C)C)c2n1 [Example 51, N^2-(2-methoxy-4-(1-methyl-1H-pyrazol-4-yl)phenyl)-6-methyl-N8-neopentylpyrido[3,4-d]pyrimidine-2,8-diamine] here?
**A.** 29 nM

**Q.** With CCOc1cc(-c2cnn(C)c2)ccc1Nc1ncc2ccnc(NCC3CC3)c2n1 [Example 101, N8-(cyclopropylmethyl)-N2-(2-ethoxy-4-(1-methyl-1H-pyrazol-4-yl)phenyl)pyrido[3,4-d]pyrimidine-2,8-diamine] as the molecule, how does the IC50 read?
**A.** 49 nM

**Q.** For COc1cc(-c2cnn(C)c2)ccc1Nc1ncc2ccnc(-c3cnn(CC(F)F)c3)c2n1 [Example 93, 8-(1-(2,2-difluoroethyl)-1H-pyrazol-4-yl)-N-(2-methoxy-4-(1-methyl-1H-pyrazol-4-yl)phenyl)pyrido[3,4-d]pyrimidin-2-amine], which IC50 is on record?
**A.** 10 nM
